The text below walks through data of US10457702B2, “Dicaffeoyl spermidine cyclized derivatives and use thereof” (Jinan University, priority 2016, dated 2019).

A short description of assay [1]: Oxygen radical absorbance capacity (ORAC) antioxidant experiment. Conditions: for ORAC value (μmol TE/μmol): relative to Trolox standard, AAPH, fluorescein. As for the experimental part:
The antioxidant activity of the compounds was evaluated by using the oxygen radical absorbance capacity (ORAC) experiment. The detailed experimental procedure is as follows. 0.248 g of AAPH (2,2′-azobisisobutylamidine dihydrochloride) was added to a 50 mL phosphate buffer system to formulate a 18.3 mM AAPH stock solution. 20 μL of phosphate buffer, 20 μL solution of sample to be tested or standard substance Trolox (concentration of 6.25 μM) and 20 μL of fluorescent substance of disodium fluorescein (FL, concentration of 630 nM) were added into the wells of a 96-well plate in order. Then, 140 μL of AAPH (concentration of 18.3 mM) was quickly added to the wells of a 96-well plate, which was immediately placed in a GENios […] microplate reader manufactured by Tecan, Switzerland, the excitation wavelength was set as 485 nm and the emission wavelength was set as 527 nm. The fluorescence intensity was measured every 2 minutes and recorded for a total of 100 min.
The antioxidant capacity of the active substance is calculated as follows: Relative ORAC value=(AUCsample−AUCblank)/(AUCtrolox−AUCblank). Wherein, AUCsample refers to the integral area under the fluorescence decay curve of the test sample, AUCtrolox refers to the integral area under the fluorescence decay curve of the standard substance Trolox, and AUCblank refers to the integral area under the fluorescence decay curve when the test sample or the standard substance Trolox is not added.

Assay [2] has as its system Senile dementia fruit fly (Aβ42, P35*H29.3). As to the kind of experiment: Learning and memory (olfactory short-term memory, T-Maze performance index) of Senile dementia fruit fly. In kind it is in vivo. Conditions: for improvement of learning and memory function of Senile dementia fruit fly (in words): 100 μM, compared with untreated disease flies and positive control drug memantine; for PI (100 μM) learning and memory performance index: Senile dementia disease flies (P35*H29.3), drug administered at 100 μM, n = 6. The source says:
(1) Cultivation of Senile Dementia Fruit Fly W^1118 (isoCJI), as a background fruit fly of control group in the experiment, was abbreviated as “2U”. The fruit flies that successfully introduced with the pathogenic Aβ42 protein were (UAS-Aβ42; abbreviated as “H29.3”). This strain of fruit flies was hybridized with the fruit fly expressing the Gal4 promoter in whole brain, and the fruit fly strain carrying elav-GAL4^[…] (P35) and Aβ42 was obtained. (2) Administration of Senile Dementia Fruit Fly Three groups of drug-free control of healthy fruit fly, drug-free control of disease fruit fly, and dose disease fruit fly were set in the experiment. All parents of tested fruit flies were housed and propagated at a constant temperature of 24° C. and a humidity of 42% RH (Relative humidity). On the first day after the emergence of the fruit flies, the fruit flies of control group and disease group, as well as the fruit flies to be administered were anesthetized with carbon dioxide, and the fruit flies of the correct characters were selected into the glass tube containing food. During the dosing period, all test fruit flies were kept in an incubator with a constant temperature of 28° C. and a constant humidity of 42% to ensure the drug taking efficiency of the fruit flies. Each day the fruit flies were administered for 4 hours, and the drug was administered from the second day after the fruit flies were selected until the 8th day. The drugs administered were prepared on the second day after the fruit fly selection, and were administered to the fruit flies on the day of preparation. The drugs were dissolved by 100% DMSO to a concentration of 10 mM. When preparing the working solution, the 10 mM stock solution was diluted to 100 μM with 4% sucrose. In addition, the fruit flies of control group were fed sucrose water containing 1% DMSO. For each Performance Index, two tubes of fruit fly groups are required, each tube containing about 100 fruit flies. Experiments were conducted in a light proof behavior room with constant temperature of 25 ° C., constant humidity of 70%. The method can be found in references ^[1-3]. 1) During the training stage, about 100 flies were loaded into a training tube provided with a copper mesh cross electrode. Two kinds of odors of octanol (OCT) and methylcyclohexanol (MCH) were successively introduced for each 60 s with an intervals for 45 s of fresh air. 60 V pulsed electrical shock stimulation (US, pulse duration 1.5 s, interval 3.5 s) was applied to the fruit flies while introducing the 1st odor. No electrical shock was applied when the second odor (CS-) was introduced. Thereby one training cycle was completed. 2) In the transient memory (learning) ability test, the fruit flies that completed one training cycle were immediately transferred to the selection point of T-Maze, while CS+ and CS- were introduced from the opposite two directions. After two minutes of selection, the fruit flies on both sides were collected separately and counted after anesthesia or sacrifice. […] When performing the activity test, the short-term memory deficit tests for the olfactory sensation of the non-administered healthy flies with the same genetic background (2U*H29.3), non-administered Senile dementia disease flies (P35*[…].3), and test drug administered Senile dementia disease flies were also conducted, and their total learning and memory performance indexes (PIs) was calculated respectively. […]

Consider `O=C(O[C@@H]1Cc2c(O)cc(O)cc2O[C@@H]1c1cc(O)c(O)c(O)c1)c1cc(O)c(O)c(O)c1` [EGCG, epigallocatechin gallate, reference compound], for which the “ORAC value (μmol TE/μmol)” value in assay [1] was found to be 1.48 ± 0.02 μmol TE/μmol.

In the case of `O=C1/C=C/c2ccc(O)c(c2)Oc2cc(O[C@@H]3O[C@H](CO)[C@@H](O)[C@H](O)[C@H]3O)c(O)cc2CCC(=O)NCCCCNCCCN1` [Formula II], in assay [2], the “improvement of learning and memory function of Senile dementia fruit fly (in words)” value was “significantly improve the learning and memory function”; the “PI (100 μM) learning and memory performance index” value is on record as 37.1 ± 2.2**. In assay [1] (ORAC, compared with positive control EGCG), the “antioxidant activity (in words)” value is “comparable to that of the positive control drug”. Besides, in assay [1], the “ORAC value (μmol TE/μmol)” value is 1.48 ± 0.01 μmol TE/μmol.

For the compound `CC12CC3CC(C)(C1)CC(N)(C3)C2` [Memantine, memantine, reference compound], the “PI (100 μM) learning and memory performance index” value in assay [2] is recorded as 44.2 ± 2.1***.

With `O=C1/C=C/c2ccc(O)c(c2)Oc2cc(O[C@@H]3O[C@H](CO)[C@@H](O)[C@H](O[C@@H]4O[C@H](CO)[C@@H](O)[C@H](O)[C@H]4O)[C@H]3O)c(O)cc2CCC(=O)NCCCCNCCCN1` [Formula III], in assay [2], the “improvement of learning and memory function of Senile dementia fruit fly (in words)” value is listed as “superior to the positive control drug”; the “PI (100 μM) learning and memory performance index” value is 45.9 ± 1.9***. In addition, the “ORAC value (μmol TE/μmol)” value in assay [1] is 0.96 ± 0.03 μmol TE/μmol.
